Results: ChEMBL document CHEMBL6153163, “Novel 6-Substituted-3-Phenylisoindolin-1-ones as Cbl-B Inhibitors for Treating Cancer” (ACS Med Chem Lett, 2025)

Target: E3 ubiquitin-protein ligase CBL-B (Homo sapiens, UniProt Q13191)
Experiment: Inhibition of biotin-tagged Cbl-B (unknown origin) pre-incubated with compound for 60 min followed by Lck addition and measured after 90 mins in presence of ATP by TR-FRET based assay

Chain of E3 ubiquitin-protein ligase CBL-B (Q13191 whole entry): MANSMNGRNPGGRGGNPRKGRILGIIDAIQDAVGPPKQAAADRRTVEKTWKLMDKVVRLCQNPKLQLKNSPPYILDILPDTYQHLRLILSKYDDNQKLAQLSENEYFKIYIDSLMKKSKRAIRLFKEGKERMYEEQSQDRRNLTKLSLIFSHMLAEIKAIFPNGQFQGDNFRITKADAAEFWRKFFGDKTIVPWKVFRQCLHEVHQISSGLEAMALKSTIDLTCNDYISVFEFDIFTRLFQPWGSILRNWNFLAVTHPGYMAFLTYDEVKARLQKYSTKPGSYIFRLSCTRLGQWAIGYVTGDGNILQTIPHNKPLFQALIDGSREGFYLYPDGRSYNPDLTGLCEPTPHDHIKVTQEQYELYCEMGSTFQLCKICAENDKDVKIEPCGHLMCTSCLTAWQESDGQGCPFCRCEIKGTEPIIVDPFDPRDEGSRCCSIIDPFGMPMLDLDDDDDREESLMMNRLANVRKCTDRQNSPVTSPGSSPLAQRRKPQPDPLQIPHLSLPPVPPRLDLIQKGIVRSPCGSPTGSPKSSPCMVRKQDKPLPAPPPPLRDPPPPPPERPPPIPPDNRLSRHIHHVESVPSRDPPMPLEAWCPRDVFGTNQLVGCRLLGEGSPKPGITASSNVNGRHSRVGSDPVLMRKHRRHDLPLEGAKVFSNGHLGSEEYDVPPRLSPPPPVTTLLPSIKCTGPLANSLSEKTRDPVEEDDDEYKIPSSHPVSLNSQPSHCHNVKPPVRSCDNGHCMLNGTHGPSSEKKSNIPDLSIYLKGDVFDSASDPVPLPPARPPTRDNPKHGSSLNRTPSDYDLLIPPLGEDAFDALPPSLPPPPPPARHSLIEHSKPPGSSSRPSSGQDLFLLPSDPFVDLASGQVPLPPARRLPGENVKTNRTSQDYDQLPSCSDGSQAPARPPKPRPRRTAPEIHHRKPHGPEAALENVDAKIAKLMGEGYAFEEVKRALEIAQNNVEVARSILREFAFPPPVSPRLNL

Row | Compound | IC50 [nM]
1 | Cn1cnnc1[C@]1(c2cccc(N3Cc4c(Cl)cc(CNCC5CCC5)cc4C3=O)c2)C[C@H](Cl)C1 | 4.1
2 | C[C@@H](NCc1cc2c(c(C(F)F)c1)CN(c1cccc([C@H](c3nncn3C)C3CC(F)C3)c1)C2=O)C1CCC1 (stereo partly specified) | 4.2
3 | CC(C)CNCc1cc(Cl)c2c(c1)C(=O)N(c1cccc([C@H](c3nncn3C)[C@H]3C[C@@H](F)C3)c1)C2 | 4.3
4 | Cn1cnnc1[C@]1(c2cccc(N3Cc4c(Cl)cc(CNCC5CCC5)cc4C3=O)c2)C[C@@H](Cl)C1 | 3.6
5 | CC(C)CNCc1cc(Cl)c2c(c1)C(=O)N(c1cccc([C@H](c3nncn3C)[C@H]3C[C@@H](CC#N)C3)c1)C2 | 4.2
6 | C[C@@H](NCc1cc2c(c(C(F)F)c1)CN(c1cccc([C@]3(c4nncn4C)C[C@H](Cl)C3)c1)C2=O)C1CCC1 | 4
